In data set [1] the test system is primary cells from patients with B-cell malignancies. To be noted: in vitro studies; cited from earlier work.
Data set [2] relates to cancer cells in human patients. To be noted: cited from earlier work.
The test system of data set [3] is 3MR and INK-ATTAC mice exposed to cigarette smoke. Nature of the data set: Cigarette smoke induced COPD model, pulse oximetry. It is filed as in vivo, mouse. To be noted: after two months of cigarette smoke exposure, compared with untreated controls; FIG. 8. As for the experimental part: As a model for chronic obstructive pulmonary disease (COPD), mice were exposed to cigarette smoke.
The effect of a senolytic agent on the mice exposed to smoke is assessed by senescent cell clearance, lung function, and histopathology.
The mice used in this study include the 3MR strain, described in US 2017/0027139 A1 and in Demaria et al., Dev Cell. 2014 Dec. 22; 31(6): 722-733. The 3MR mouse has a transgene encoding thymidine kinase that converts the prodrug ganciclovir (GCV) to a compound that is lethal to cells. The enzyme in the transgene is placed under control of the p16 promoter, which causes it to be specifically expressed in senescent cells. Treatment of the mice with GCV eliminates senescent cells.
Other mice used in this study include the INK-ATTAC strain, described in US 2015/0296755 A1 and in Baker et al., Nature 2011 Nov. 2; 479(7372):232-236. The INK-ATTAC mouse has a transgene encoding switchable caspase 8 under control of the p16 promoter. The caspase 8 can be activated by treating the mice with the switch compound AP20187, whereupon the caspase 8 directly induces apoptosis in senescent cells, eliminating them from the mouse.
To conduct the experiment, six-week-old 3MR (n=35) or INK-ATTAC (n=35) mice were chronically exposed to cigarette smoke generated from a Teague TE-10 system, an automatically-controlled cigarette smoking machine that produces a combination of side-stream and mainstream cigarette smoke in a chamber, which is transported to a collecting and mixing chamber where varying amounts of air is mixed with the smoke mixture. The COPD protocol was adapted from the COPD core facility at Johns Hopkins University (Rangasamy et al., 2004, J. Clin. Invest. 114:1248-1259; Yao et al., 2012, J. Clin. Invest. 122:2032-2045).
Mice received a total of 6 hours of cigarette smoke exposure per day, 5 days a week for 6 months. Each lighted cigarette (3R4F research cigarettes containing 10.9 mg of total particulate matter (TPM), 9.4 mg of tar, and 0.726 mg of nicotine, and 11.9 mg carbon monoxide per cigarette [University of Kentucky, Lexington, Ky.]) was puffed for 2 seconds and once every minute for a total of 8 puffs, with the flow rate of 1.05 L/min, to provide a standard puff of 35 cm3. […] The smoke chamber atmosphere was monitored for total suspended particulates (80-120 mg/m3) and carbon monoxide (350 ppm). […]
After two months of cigarette smoke (CS) exposure, lung function was assessed by monitoring oxygen saturation using the MouseSTAT PhysioSuite™ pulse oximeter (Kent Scientific). […] Mice were monitored for 30 seconds and the average peripheral capillary oxygen saturation (SpO2) measurement over this duration was calculated.

Data set [4] relates to C57BL/6J mice with osteoarthritis induced by ACL surgery. Nature of the data set: Osteoarthritis model: anterior cruciate ligament surgery, intra-articular treatment. It is filed as in vivo, mouse. As for the experimental part:
The model was implemented as follows. C57BL/6J mice underwent surgery to cut the anterior cruciate ligament of one rear limb to induce osteoarthritis in the joint of that limb. During week 3 and week 4 post-surgery, the mice were treated with 5.8 μg of Nutlin-3A (n=7) per operated knee by intra-articular injection, q.o.d. for 2 weeks. At the end of 4 weeks post-surgery, joints of the mice were monitored for presence of senescent cells, assessed for function, monitored for markers of inflammation, and underwent histological assessment.
Two control groups of mice were included in the studies performed: one group comprising C57BL/6J or 3MR mice that had undergone a sham surgery (n=3) (i.e., surgical procedures followed except for cutting the ACL) and intra-articular injections of vehicle parallel to the GCV (ganciclovir) treated group; and one group comprising C57BL/6J or 3MR mice that had undergone an ACL surgery and received intra-articular injections of vehicle (n=5) parallel to the GCV-treated group. RNA from the operated joints of mice from the Nutlin-3A treated mice was analyzed for expression of SASP factors (mmp3, IL-6) and senescence markers (p16). qRT-PCR was performed to detect mRNA levels.
Function of the limbs was assessed 4 weeks post-surgery by a weight bearing test to determine which leg the mice favored. The mice were allowed to acclimate to the chamber on at least three occasions prior to taking measurements. Mice were maneuvered inside the chamber to stand with one hind paw on each scale. The weight that was placed on each hind limb was measured over a three second period. At least three separate measurements were made for each animal at each time point. The results were expressed as the percentage of the weight placed on the operated limb versus the contralateral unoperated limb.

In data set [5] the test system is LDLR-/- mice fed a high fat diet. Nature of the data set: Atherosclerosis model, LDLR-/- mice on a high fat diet, systemic treatment. The format is in vivo, mouse. The protocol:
This example illustrates the testing of an MDM2 inhibitor in a mouse model for treatment of atherosclerosis. The test compounds are administered systemically rather than locally. The model is done in an LDLR−/− strain of mice, which are deficient in the receptor for low-density lipoprotein. The experiments described here can be adapted mutatis mutandis to test and develop other types of inhibitors for use in clinical therapy.
Two groups of LDLR−/− mice (10 weeks) are fed a high fat diet (HFD) (Harlan Teklad TD.88137) having 42% calories from fat, beginning at Week 0 and throughout the study. Two groups of LDLR−/− mice (10 weeks) are fed normal chow (−HFD). From weeks 0-2, one group of HFD mice and −HFD mice are treated with Nutlin-3A (25 mg/kg, intraperitoneally). One treatment cycle is 14 days treatment, 14 days off. Vehicle is administered to one group of HFD mice and one group of −HFD mice. At week 4 (timepoint 1), one group of mice are sacrificed and to assess presence of senescent cells in the plaques. For the some of the remaining mice, Nutlin-3A and vehicle administration is repeated from weeks 4-6. At week 8 (timepoint 2), the mice are sacrificed and to assess presence of senescent cells in the plaques. The remaining mice are treated with Nutlin-3A or vehicle from weeks 8-10. At week 12 (timepoint 3), the mice are sacrificed and to assess the level of plaque and the number of senescent cells in the plaques.
Plasma lipid levels were measured in LDLR−/− mice fed a HFD and treated with Nutlin-3A or vehicle at timepoint 1 as compared with mice fed a −HFD (n=3 per group). Plasma was collected mid-afternoon and analyzed for circulating lipids and lipoproteins.
At the end of timepoint 1, LDLR−/− mice fed a HFD and treated with Nutlin-3A or vehicle were sacrificed (n=3, all groups), and the aortic arches were dissected for RT-PCR analysis of SASP factors and senescent cell markers. Values were normalized to GAPDH and expressed as fold-change versus age-matched, vehicle-treated LDLR−/− mice on a normal diet.
At the end of timepoint 2, LDLR−/− mice fed a HFD and treated with Nutlin-3A or vehicle (n=3 for all groups) were sacrificed, and aortic arches were dissected for RT-PCR analysis of SASP factors and senescent cell markers. Values were normalized to GAPDH and expressed as fold-change versus age-matched, vehicle-treated LDLR−/− mice on a normal diet.
At the end of timepoint 3, LDLR−/− mice fed a HFD and treated with Nutlin-3A or vehicle (n=3 for all groups) were sacrificed, and aortas were dissected and stained with Sudan IV to detect the presence of lipid. Body composition of the mice was analyzed by MRI, and circulating blood cells were counted by Hemavet™.

As to `CN(C)CC[C@H](CSc1ccccc1)Nc1ccc(S(=O)(=O)NC(=O)c2ccc(N3CCN(Cc4ccccc4-c4ccc(Cl)cc4)CC3)cc2)cc1[N+](=O)[O-]` [ABT-737], the “sensitivity of primary cells from patients with B-cell malignancies” value in data set [1] is reported as “sensitive”. Also, the “efficacy against cancer cells in human patients” value in data set [2] is recorded as “effective against some types of cancer cells”.
Take `COc1ccc(C2=N[C@@H](c3ccc(Cl)cc3)[C@@H](c3ccc(Cl)cc3)N2C(=O)N2CCNC(=O)C2)c(OC(C)C)c1` [Nutlin-3A]: in data set [3], the “peripheral capillary oxygen saturation (SpO2) levels” value is “statistically significant increases”. Besides, in data set [4] (5.8 μg per operated knee intra-articular, 4 weeks post-surgery), the “presence of senescent cells in the joint” value was “cleared senescent cells from the joint”. In data set [4] (4 weeks post-surgery, effect = favoring the unoperated hind limb, FIG. 6A), the “weight bearing test: weight placed on the operated limb versus the contralateral unoperated limb” value is “abrogated this effect”. Also, in data set [4] (effect = proteoglycan layer destroyed by ACL surgery, FIGS. 6B-6D), the “histopathology of joint tissue: destruction of the proteoglycan layer” value is listed as “completely abrogated this effect”. The “expression of p16 in the tissue (mRNA, qRT-PCR)” value in data set [4] (operated joints, 5.8 μg per operated knee intra-articular q.o.d. for 2 weeks, 4 weeks post-surgery, FIG. 5A) was “reduced the expression back to below the level of the controls”. The “expression of IL-6 in the tissue (mRNA, qRT-PCR)” value in data set [4] (operated joints, 5.8 μg per operated knee intra-articular q.o.d. for 2 weeks, 4 weeks post-surgery, FIG. 5B) is “reduced the expression back to below the level of the controls”. For the same molecule, in data set [4] (operated joints, 5.8 μg per operated knee intra-articular q.o.d. for 2 weeks, 4 weeks post-surgery, FIG. 5C), the “expression of MMP13 in the tissue (mRNA, qRT-PCR)” value is reported as “reduced the expression back to below the level of the controls”. In data set [5] (25 mg/kg intraperitoneally, timepoint 1 (week 4), after one treatment cycle), the “expression of SASP factors and senescent cell markers MMP3, MMP13, PAI1, p21, IGFBP2, IL-1A, IL-1B in the aortic arch (RT-PCR)” value was “reduced expression of several SASP factors and senescent cell markers”. The “expression of SASP factors and senescent cell markers in the aortic arch (RT-PCR)” value in data set [5] (25 mg/kg intraperitoneally, timepoint 2 (week 8), multiple treatment cycles) is “reduced expression of most markers”. The “reduction of the surface area covered by plaques in the descending aorta (Sudan IV)” value in data set [5] (25 mg/kg intraperitoneally, timepoint 3 (week 12), FIG. 9) is listed as “about 45%”. Also, in data set [5] (timepoint 3 (week 12)), the “body fat composition of mice fed the high fat diet (MRI)” value was “decreased” and the “mass of mice fed the high fat diet” value is reported as “decreased”. Moreover, in data set [5] (timepoint 3 (week 12), Hemavet), the “lymphocyte counts versus vehicle treated mice” value is recorded as “equivalent” and the “platelet counts versus vehicle treated mice” value is on record as “equivalent”.
As for `CC1(C)CCC(c2ccc(Cl)cc2)=C(CN2CCN(c3ccc(C(=O)NS(=O)(=O)c4ccc(N[C@H](CCN5CCOCC5)CSc5ccccc5)c(S(=O)(=O)C(F)(F)F)c4)cc3)CC2)C1` [ABT-263], the “peripheral capillary oxygen saturation (SpO2) levels” value in data set [3] is listed as “statistically significant increases”.
Regarding `CC[C@H](C(=O)N1CCCC[C@H]1C(=O)O[C@H](CCc1ccc(OC)c(OC)c1)c1cccc(OCC(=O)NCC(CNC(=O)COc2cccc([C@@H](CCc3ccc(OC)c(OC)c3)OC(=O)[C@@H]3CCCCN3C(=O)[C@@H](CC)c3cc(OC)c(OC)c(OC)c3)c2)CN(C)C)c1)c1cc(OC)c(OC)c(OC)c1` [AP2018], the “peripheral capillary oxygen saturation (SpO2) levels” value in data set [3] is recorded as “statistically significant increases”.
Turning to `Nc1nc(O)c2ncn(COC(CO)CO)c2n1` [ganciclovir], the “peripheral capillary oxygen saturation (SpO2) levels” value in data set [3] is listed as “statistically significant increases”.

The record behind these values is US10745429B2, “Phospholidines that are Bcl family antagonists for use in clinical management of conditions caused or mediated by senescent cells and for treating cancer” (Unity Biotechnology, Inc., priority 2018, dated 2020).
